Where two headings read alike, the source gives them in different places.
Legend:
[1] = system: NDM-1-Producing P. aeruginosa (PA-017, blaNDM); assay: MIC / checkerboard with ATM; type: cell-based; conditions: for MIC: Pseudomonas aeruginosa
PA-033, blaNDM = assay: MIC / checkerboard with ATM; type: cell-based, P. aeruginosa; conditions: for MIC: Pseudomonas aeruginosa, read-out: MIC of ATM with 5, PA-033
In vivo toxicity = conditions: 6-week-old C57BL/6J female mouse
PA-034, blaNDM = assay: MIC / checkerboard with ATM; type: cell-based, P. aeruginosa; conditions: for MIC: Pseudomonas aeruginosa, read-out: MIC of ATM with 5, PA-034
PA-031, blaNDM = assay: MIC / checkerboard with ATM; type: cell-based, P. aeruginosa; conditions: for MIC: Pseudomonas aeruginosa, read-out: MIC of ATM with 5, PA-031
PA-025, blaNDM = assay: MIC / checkerboard with ATM; type: cell-based, P. aeruginosa; conditions: for MIC: Pseudomonas aeruginosa, read-out: MIC of ATM with 5, PA-025
PA-003, blaVIM = assay: MIC / checkerboard with ATM; type: cell-based, P. aeruginosa; conditions: PA-003

## CC(C)(C)CCOc1c(-c2ccc(F)c(F)c2)oc2cc(OCC(=O)O)cc(O)c2c1=O [Compound 5, 2-((2-(3,4-Difluorophenyl)-3-(3,3-dimethylbutoxy)-5-hydroxy-4-oxo-4H-chromen-7-yl)oxy)acetic Acid]
[1]; PA-017, lowest-FICI combination
  FD (fold decrease in MIC of ATM with 5): 4
[1]; PA-017, compound alone, read-out: MIC, Cmpd
  MIC: > 256 µg/mL
[1]; read-out: MIC of ATM with 5, PA-017, 5 at 1 mg/L
  MIC: 8 µg/mL
[1]; read-out: MIC of ATM with 5, PA-017, 5 at 2 mg/L
  MIC: 8 µg/mL
[1]; read-out: MIC of ATM with 5, PA-017, 5 at 4 mg/L
  MIC: 4 µg/mL
[1]; read-out: MIC of ATM with 5, PA-017, 5 at 8 mg/L
  MIC: 4 µg/mL
[1]; read-out: MIC of ATM with 5, PA-017, 5 at 16 mg/L
  MIC: 2 µg/mL
[1]; read-out: MIC of ATM with 5, PA-017, 5 at 32 mg/L
  MIC: 2 µg/mL
[1]; read-out: MIC of ATM with 5, PA-017, 5 at 64 mg/L
  MIC: 1 µg/mL
PA-033, blaNDM; PA-033
  Activity (FICI class): I (I (indifference, 0.5 < FICI ≤ 4))
  Concentrations of ATM and 5 at lowest FICI (ATM/5): 1/8
  Lowest FICI (ATM/5): 0.52
PA-033, blaNDM; PA-033, ATM/5
  Susceptibility to ATM: S (S (sensitive, MIC ≤ 8 mg/L))
PA-033, blaNDM; PA-033, lowest-FICI combination
  FD (fold decrease in MIC of ATM with 5): 2
PA-033, blaNDM; 5 at 1 mg/L
  MIC: 2 µg/mL
PA-033, blaNDM; 5 at 2 mg/L
  MIC: 2 µg/mL
PA-033, blaNDM; 5 at 4 mg/L
  MIC: 2 µg/mL
PA-033, blaNDM; 5 at 8 mg/L
  MIC: 1 µg/mL
PA-033, blaNDM; 5 at 16 mg/L
  MIC: 1 µg/mL
PA-033, blaNDM; 5 at 32 mg/L
  MIC: 1 µg/mL
PA-033, blaNDM; 5 at 64 mg/L
  MIC: 1 µg/mL
In vivo toxicity
  Dose up to which no toxicity was shown: ≥ 40 mg/kg
PA-034, blaNDM; PA-034
  Activity (FICI class): S (S (Synergy, FICI ≤ 0.5))
  Concentrations of ATM and 5 at lowest FICI (ATM/5): 4/8
  Lowest FICI (ATM/5): 0.27
  Minimum concentration of 5 to make sensitive to ATM: 4 mg/L
PA-034, blaNDM; PA-034, ATM/5
  Susceptibility to ATM: S (S (sensitive, MIC ≤ 8 mg/L))
PA-034, blaNDM; PA-034, lowest-FICI combination
  FD (fold decrease in MIC of ATM with 5): 4
PA-034, blaNDM; 5 at 1 mg/L
  MIC: 16 µg/mL
PA-034, blaNDM; 5 at 2 mg/L
  MIC: 16 µg/mL
PA-034, blaNDM; 5 at 4 mg/L
  MIC: 8 µg/mL
PA-034, blaNDM; 5 at 8 mg/L
  MIC: 4 µg/mL
PA-034, blaNDM; 5 at 16 mg/L
  MIC: 4 µg/mL
PA-034, blaNDM; 5 at 32 mg/L
  MIC: 4 µg/mL
PA-034, blaNDM; 5 at 64 mg/L
  MIC: 4 µg/mL
PA-031, blaNDM; PA-031
  Activity (FICI class): S (S (Synergy, FICI ≤ 0.5))
  Concentrations of ATM and 5 at lowest FICI (ATM/5): 1/8
  Lowest FICI (ATM/5): 0.27
PA-031, blaNDM; PA-031, ATM/5
  Susceptibility to ATM: S (S (sensitive, MIC ≤ 8 mg/L))
PA-031, blaNDM; PA-031, lowest-FICI combination
  FD (fold decrease in MIC of ATM with 5): 4
PA-031, blaNDM; 5 at 1 mg/L
  MIC: 2 µg/mL
PA-031, blaNDM; 5 at 2 mg/L
  MIC: 2 µg/mL
PA-031, blaNDM; 5 at 4 mg/L
  MIC: 2 µg/mL
PA-031, blaNDM; 5 at 8 mg/L
  MIC: 1 µg/mL
PA-031, blaNDM; 5 at 16 mg/L
  MIC: 1 µg/mL
PA-031, blaNDM; 5 at 32 mg/L
  MIC: 1 µg/mL
PA-031, blaNDM; 5 at 64 mg/L
  MIC: 1 µg/mL
PA-025, blaNDM; PA-025
  Activity (FICI class): S (S (Synergy, FICI ≤ 0.5))
  Concentrations of ATM and 5 at lowest FICI (ATM/5): 4/16
  Lowest FICI (ATM/5): 0.28
  Minimum concentration of 5 to make sensitive to ATM: 4 mg/L
PA-025, blaNDM; PA-025, ATM/5
  Susceptibility to ATM: S (S (sensitive, MIC ≤ 8 mg/L))
PA-025, blaNDM; PA-025, lowest-FICI combination
  FD (fold decrease in MIC of ATM with 5): 4
PA-025, blaNDM; 5 at 1 mg/L
  MIC: 16 µg/mL
PA-025, blaNDM; 5 at 2 mg/L
  MIC: 16 µg/mL
PA-025, blaNDM; 5 at 4 mg/L
  MIC: 8 µg/mL
PA-025, blaNDM; 5 at 8 mg/L
  MIC: 8 µg/mL
PA-025, blaNDM; 5 at 16 mg/L
  MIC: 4 µg/mL
PA-025, blaNDM; 5 at 32 mg/L
  MIC: 2 µg/mL
PA-025, blaNDM; 5 at 64 mg/L
  MIC: 2 µg/mL
PA-003, blaVIM
  Activity (FICI class): I (I (indifference, 0.5 < FICI ≤ 4))
  Concentrations of ATM and 5 at lowest FICI (ATM/5): 16/1
  Minimum concentration of 5 to make sensitive to ATM: 1 mg/L
PA-003, blaVIM; 5 at 2 mg/L
  MIC of ATM with 5: 16 µg/mL
PA-003, blaVIM; 5 at 4 mg/L
  MIC of ATM with 5: 16 µg/mL
PA-003, blaVIM; 5 at 8 mg/L
  MIC of ATM with 5: 16 µg/mL
PA-003, blaVIM; 5 at 16 mg/L
  MIC of ATM with 5: 16 µg/mL
PA-003, blaVIM; 5 at 32 mg/L
  MIC of ATM with 5: 16 µg/mL
PA-003, blaVIM; 5 at 64 mg/L
  MIC of ATM with 5: 16 µg/mL
PA-003, blaVIM; ATM/5
  Susceptibility to ATM: I (I (intermediate, MIC = 16 mg/L))
PA-003, blaVIM; lowest-FICI combination
  FD (fold decrease in MIC of ATM with 5): 2
PA-003, blaVIM; Pseudomonas aeruginosa, read-out: MIC of ATM with 5, 5 at 1 mg/L
  MIC: 16 µg/mL

Source: publication PMC11672637, “7-O-Carboxylic Acid-Substituted 3-O-Alkyl Difluoroquercetin; An Aztreonam-Potentiating Agent Against Carbapenemase-Producing Pseudomonas aeruginosa Through Simultaneous Inhibition of Metallo-β-Lactamase and Efflux Pump” (Antibiotics, 2024)
